According to patent US10793625B2, “Compositions and methods for treating or preventing osteoarthritis” (THE JOHNS HOPKINS UNIVERSITY, priority 2012, dated 2020):
Like-named read-outs stand apart in the source and are kept apart here.

Assays:
[1] = system: 9-month-old ACLT mice; experiment: ACLT or sham surgery in 9 month old mice treated with TβRI inhibitor; format: in vivo, mouse; settings: for articular cartilage degeneration / subchondral bone structure / architecture: 1 mg/kg daily for 1 month
Description: (FIG. 12A) Safranin O staining of tibia articular cartilage and subchondral bone of mice sacrificed at 0, 14, 30, and 60 days post sham or ACLT surgery and treated with either vehicle or TβRI inhibitor (SB505124-1 mg/kg) daily beginning 3 days post-surgery for 1 month. For those mice analyzed at earlier time points, the mice were treated until sacrificed. (FIG. 12B) 3D μCT images of subchondral bone of knee joints. The sham operated mice maintained articular cartilage and subchondral bone structure throughout the duration of the experiment. […] (FIG. 12C) OARSI score based on the histology analysis. Quantitative analysis of structural parameters by μCT analysis: (FIG. 12D) thickness of subchondral bone plate (SBP) and (FIG. 12E) trabecular pattern factor (Tb. Pf). […] Ve-Sham: vehicle treated in sham operated; In-Sham: TβRI inhibitor treat in sham operated; Ve-ACLT: vehicle treated in ACLT operated; In-ACLT: TβRI inhibitor treated in ACLT operated mice.
Histochemistry, Immunohistochemistry and Histomorphometry. […] Immunostaining was performed using standard protocol. […] We calculated OARSI scores as previously described.
Micro-Computed Tomography (μCT). […] Th: trabecular thickness, Tb. Sp: trabecular separation, SMI, Conn. Dn: connectivity density, and Tb.Pf: trabecular pattern factor.

[2] = system: Dunkin Hartley guinea pig spontaneous osteoarthritis; experiment: Dunkin Hartley guinea pig spontaneous osteoarthritis, MRI of knee joints; format: in vivo; settings: injected for 3 months
Source text: (FIG. 16A) MRI scanning of knee joints of the guinea pig with different dose of TβRI inhibitor or vehicle treatment for 3 months. Red arrows pointing the bone marrow lesions in the subchondral bone of distal femur (upper row) or tibiae plateau (lower row). (FIG. 16B) Quantitative analysis of the bone marrow lesion intensity.

[3] = system: Nestin-Cre™ER::Rosa26-LacZ^fl/fl mice; experiment: β-gal and osteocalcin co-staining in subchondral bone of Nestin-CreER::Rosa26-LacZfl/fl ACLT mice; format: in vivo, mouse
Source text: We purchased Nestin-Cre™ER and (ROSA)26Sortm1Sor/J mice from the Jackson Laboratory. Floxed type II TGF-β receptor (TβRII^fl/fl) mice were obtained from Dr. Moses' lab. Nestin-Cre™ER mice were crossed with TβRII^fl/fl mice. The offspring were intercrossed to generate the following offspring: nestin-Cre™ER::TβRII^fl/fl, in which Cre was fused with a mutated estrogen receptor that could be activated by Tamoxifen. We determined the genotype of transgenic mice by PCR analyses of genomic DNA isolated from mouse tails. Genotyping for the Cre transgene was performed by PCR with the primers Cre 5′ (5′-CAAATAGCCCTGGCAGAT-3′) and Cre 3′ (5′-[…]-3′). The loxP TβRII allele was identified with the primerslox1F (5′-[…]-3′) and lox1R (5′-[…]-3′). We generated Nestin-Cre™ER::Rosa26-LacZ^fl/fl mice by crossing nestin-Cre™ER mice with mice homozygous with a loxP-flanked DNA STOP sequence preventing expression of the downstream lacZ gene. The offspring were then intercrossed to generate the following genotype: Nestin-Cre™ER::Rosa26-LacZ^fl/fl. We performed sham or ACLT operations on two month-old, male WT, Nestin-Cre™ER::TβRII^fl/fl and Nestin-Cre™ER::Rosa26-lacZ^fl/fl male mice. […]
Histochemistry, Immunohistochemistry and Histomorphometry. […] We calculated OARSI scores as previously described.

[4] = system: ACLT mice
Source text: Mice. We purchased C57BL/6J (wild type) mice from Charles River. We anesthetized two months old male mice with ketamine and xylazine and then transected the anterior cruciate ligament surgically to induce mechanical instability associated osteoarthritis on the right knee. Sham operations were done on independent mice. For the time-course experiment, operated animals were euthanized at 0, 14, 30, 60 and 90 days post-surgery, n=8-12. For the dosage screening experiment, 2-month-old sham and ACLT-operated mice were assigned into 6 groups, n=10 per group. Beginning three days after surgery, we injected either different doses (0.1, 0.5, 1, 2.5, and 5 mg kg^−1) of TβRI inhibitor (SB505124, Sigma Aldrich) or the equivalent volume of vehicle (DMSO+PBS) intra-peritoneally daily for 30 days. Mice were euthanized 30 and 60 days post-surgery.
Histochemistry, Immunohistochemistry and Histomorphometry. At the time of sacrifice, we resected and fixed the knee joints in 10% buffered formalin for 48 hours, decalcified in 10% ethylenediamine tetraacetic acid (pH 7.4) for 21 days and embedded in paraffin or O.C.T. compound (Sakura Finetek). Four-μm-thick sagittal oriented sections of the knee joint medial compartment were processed for hematoxylin and eosin and sanfranin O-Fast green staining. Tartrate resistant acid phosphatase staining was performed using standard protocol (Sigma-Aldrich). Immunostaining was performed using standard protocol. We incubated sections with primary antibodies to mouse Nestin (Ayes Labs, Inc., 1:300), Osterix (Abeam, 1:600), Osteocalcin (Takara bio 1:200), p-Smad2/3 (Santa Cruz Biotechnology Inc., 1:50), p-Smad1/5 (Abcam, 1:50), ALK1 (Santa Cruz Biotechnology Inc., 1:50), ALK5 (Abeam, 1:50), CD31 (Abeam, 1:100), MMP13 (Abeam, 1:40), and Collagen X (Abeam, (1:80) overnight at 4° C. For immunohistochemical staining, a horse radish peroxidase-streptavidin detection system (Dako) was subsequently used to detect the immunoactivity followed by counterstaining with hematoxylin (Dako). For immunofluorescent staining, secondary antibodies conjugated with fluorescence were added and slides were incubated at room temperature for 1 hour while avoiding light. We microphotographed sections to perform histomorphometric measurements on the entire area of the tibia subchondral bone (Olympus DP71). Quantitative histomorphometric analysis was conducted in a blinded fashion with OsteoMeasureXP Software (OsteoMetrics, Inc). To label mineralization deposition, sequential subcutaneous injections of 1% calcein (Sigma, 15 mg kg^−1) and 3% xylenol orange (Sigma, 90 mg kg^−1) in 2% sodium bicarbonate solution was performed. Calcein and xylenol orange were injected 10 days and 2 days respectively before the mice were sacrificed. We counted the number of positively stained cells in whole tibia subchondral bone area per specimen, in five sequential sections per mouse in each group. We calculated OARSI scores as previously described.
Flow cytometry. We divided C57/B16 mice into 3 groups (n=10 per group): sham operation with vehicle treatment, ACLT with vehicle treatment and ACLT with TβRI inhibitor (SB505124) treatment. One month after surgery, we sacrificed mice and pooled tibia subchondral bone marrow cells from each group together. Red blood cells were lysed by commercial ACK lysis buffer (Quality Biological, Inc.). After centrifugation, the cell pellet was resuspended and fixed in 4% paraformaldehyde. We then washed cells with 0.1% bovine serum albumin (BSA) in PBS and counted them. 1×10^6 cells per milliliter were permeabilized in 0.1% Triton X-100 prior to blocking in 3% FACS buffer (PBS, 3% FBS, 0.1% NaN3 sodium azide) for 30 min on ice. We incubated the cells with Alexa Fluor 647-conjugated Nestin antibody (BD Pharmingen), anti-Osterix (Abeam, 1:400) or isotype control for 1 hour at 37° C. in dark room, and then washed twice with 0.1% BSA in PBS.

[5] = system: active TGF-β1; settings: injection; cited from earlier work
[6] = system: MSCs; experiment: Western blot of Smad phosphorylation in cultured MSCs treated with recombinant hTGF-β1; format: cell-based, mouse
Description: Cell Culture. We obtained green fluorescent protein (GFP)-labeled mouse adult MSCs from the Texas A&M Health Science Center College of Medicine Institute (College Station). We maintained cells (Passage 3-5) Iscove's modified Dulbecco's medium (Invitrogen) supplemented with 10% fetal calf serum (Atlanta Biologicals), 10% horse serum (Thermo Scientific), and (% penicillin-streptomycin (Mediatech). We cultured MSCs in 6-well plates at a density of 1.8×10^5 cells per well, then starved them for 6 h followed by TGF-β1 (R&D Systems) and TβRI inhibitor (SB-505124) (Sigma-Aldrich) treatment as indicated.
ELISA and Western Blot, We determined the concentration of active TGF-β1 in the conditioned media by the ELISA Development kit (R&D Systems) according to the manufacturer's instructions. Western blot analyses were conducted on the protein of lysates from in vitro cultured MSCs. The cell lysates were centrifuged and the supernatants were separated by SDS-PAGE and blotted on polyvinylidene fluoride membrane (Bio-Rad Laboratories). Following incubation in specific antibodies, we detected proteins using an enhanced chemiluminescence kit (Amersham Biosciences). […]

[7] = 9 month old ACLT mice, listed as WI inhibitor, 1 mg/kg

For `Cc1cccc(-c2[nH]c(C(C)(C)C)nc2-c2ccc3c(c2)OCO3)n1` [TβRI inhibitor], the articular cartilage degeneration ([1]; 9 month old ACLT mice, 1 mg/kg) was “attenuated the articular cartilage degeneration”, the “subchondral bone structure / architecture” value ([1]; 9 month old ACLT mice, 1 mg/kg) was “improved subchondral bone architecture” and the articular cartilage degeneration [1, 7] was “attenuated”. For the same molecule, the “subchondral bone structure / architecture” value [1, 7] was “improved”, the “trabecular pattern factor (Tb. Pf), μCT” value ([1]; 9 month old ACLT mice, 1 and 2 months post ACLT, relative to ACLT-Vehicle) was “decreased the trabecular pattern factor” and the “thickness of subchondral bone plate (SBP), μCT” value ([1]; 9 month old ACLT mice, 1 month post-surgery, compared to sham-operated controls) was “remained normal”. For the same molecule, the “effect on articular cartilage” value ([1]; sham-operated 9 month old mice, 1 mg/kg) was “did not have significant effect on articular cartilage”, the “subchondral bone marrow lesions in knee joints” value [2] was “significantly reduced” and the “distribution of β-gal+ MSC lineage cells in subchondral bone” value [3] was “primarily distributed on bone surface”. The “subchondral bone tissue volume (TV), μCT” value ([4]; 1 mg kg^−1) was “normalization of subchondral bone TV”, the “thickness of subchondral bone plate (SBP), μCT” value ([4]; 1 mg kg^−1) was “maintenance of the thickness of SBP” and the “trabecular pattern factor (Tb. Pf), μCT” value ([4]; 1 mg kg^−1) was “decrease in Tb. Pf”. For the same molecule, the “degeneration of articular cartilage” value ([4]; 0.1 and 0.5 mg/kg, 2 months after ACLT) was “nor prevent the degeneration of articular cartilage”, the “contrast signal in MRI perfusion analysis” value ([4]; 1 month post ACLT) was “the increase was prevented” and the “expression of ALK5 in subchondral bone” value ([4]; 2 weeks post-surgery) was “the increase was inhibited”. For the same molecule, the “pSmad2/3+ cells in subchondral bone” value ([4]; 2 weeks post-surgery) was “the increase was prevented”, the “expression level of ALK1 in subchondral bone” value ([4]; 2 weeks post-surgery, relative to sham) was “remained unchanged” and the “number of pSmad1+ cells in subchondral bone” value ([4]; 2 weeks post-surgery, relative to sham controls) was “remained relatively stable”. For the same molecule, the subchondral bone structure ([4]; 2.5 and 5 mg/kg daily i.p. for 30 days, ACLT mice) was “could rescue the bone structure”, the “co-localization of osterix+ osteoprogenitors and TRAP+ osteoclasts” value ([4]; 14 and 30 days, immunostaining) was “co-localization of osterix and TRAP was seen” and the “increase of nestin+ MSCs in subchondral bone marrow” value ([4]; 30 days post-surgery, immunostaining) was “prevented”. The “CD31+ endothelial progenitors in subchondral bone” value ([4]; ACLT mice) was “reduced”, the “bone volume/tissue volume (BV/TV), μCT” value ([4]; all doses, 30 and 60 days post ACLT) was “did not change BV/TV” and the “subchondral bone tissue volume (TV), μCT” value ([4]; high doses 1, 2.5 and 5 mg/kg) was “inhibited the increase in TV”. For the same molecule, the “trabecular pattern factor (Tb. Pf), μCT” value ([4]; high doses 1, 2.5 and 5 mg/kg) was “decreased Tb. Pf”, the subchondral bone structure ([4]; higher concentrations, beginning at 1 mg kg^−1) was “improved subchondral bone structure” and the “bone marrow lesion in tibial subchondral bone” value ([4]; micro-MRI, vs ACLT-vehicle treated mice) was “obviously smaller in size”. For the same molecule, the “increased number of osterix+ osteoprogenitor clusters in bone marrow” value ([4]; one month post ACLT, vs vehicle) was “attenuated”, the “gait analysis: disparity of maximum contact time (Maxcontactat %) of the two hind limbs” value ([4]; two months post-surgery, Catwalk system) was “rescued” and the “OARSI score of articular cartilage” value ([4]; vs vehicle treated ACLT mice) was “protective effect”. For the same molecule, the “uncoupled bone formation induced by high concentrations of active TGF-β1” value [5] was “rescue uncoupled bone formation”.
For “TGF-β1: recombinant hTGF-β1 (R&D Systems) used to treat cultured MSCs”, the “dose giving maximal increase of phosphorylated Smad1/5/8” value [6] was 5 ng/mL and the “phosphorylation of Smad2/3 and Smad1/5/8” value ([6]; low concentrations) was “stimulated phosphorylation”.
